Reference: patent US4312813A, “Bisquaternary ammonium compound” (Johnson & Johnson Baby Products Company, priority 1980, dated 1982)

Tests used:
Pseudomonas aeruginosa = experiment: Minimum Inhibiting Concentration test; assay type: cell-based; conditions: 35° C., 18 hours
Experimental: (§1) First, 200 mg. each of the compounds, AA, CC, GG, II and MM are placed in 100 ml. of a 10% ethyl alcohol solution resulting in a concentration of 2.00 mg/ml. and then 11 serial two fold dilutions are made to a final concentration of […]. Thus, a range of concentrations of from 0.0001 mg/ml. to 2.00 mg/ml. are prepared. Separately, 1000 ml. of a standard Antibiotic Medium #3 is innoculated with 1 ml. of a 24 hour broth culture of each of the test organisms and the resulting solutions are dispersed in 2 ml. portions into 13 mm×100 mm test tubes at 4° C. Two test tubes for each of the test organisms are prepared.
(§2) Then, 0.4 ml. of each concentration of the compound to be tested is placed in each of the test tubes, which are then shaken and placed at a temperature of 35° C. for a period of 18 hours for bacteria, 25° C. for a period of 3 days for yeast, and 25° C. for a period of 1 month for fungi. The end point of the activity is determined by streaking utilizing a calibrated loop to Trypticase Soy Agar to determine the last tube (concentration) with growth and the next greatest concentration.

Candida albicans = experiment: Minimum Inhibiting Concentration test; assay type: cell-based; conditions: yeast, 25° C., 3 days; for MIC: 72 h
Experimental: as §1, §2

Escherichia coli = experiment: Minimum Inhibiting Concentration test; assay type: cell-based; conditions: 35° C., 18 hours
Experimental: as §1, §2

Staphylococcus pyogenes = experiment: Minimum Inhibiting Concentration test; assay type: cell-based; conditions: 35° C., 18 hours; for MIC: Staphylococcus aureus
Experimental: as §1, §2

Staphylococcus epidermis = experiment: Minimum Inhibiting Concentration test; assay type: cell-based; conditions: 35° C., 18 hours
Experimental: as §1, §2

Aspergillus niger = experiment: Minimum Inhibiting Concentration test; assay type: cell-based; conditions: fungi, 25° C., 1 month
Experimental: as §1, §2

Proteus vulgaris = experiment: Minimum Inhibiting Concentration test; assay type: cell-based; conditions: 35° C., 18 hours
Experimental: as §1, §2

Epidermophyton flocossum = experiment: Minimum Inhibiting Concentration test; assay type: cell-based; conditions: fungi, 25° C., 1 month
Experimental: as §1, §2

[1] = system: Trichophyton mentagrophytes; experiment: Minimum Inhibiting Concentration test; assay type: cell-based; conditions: fungi, 25° C., 1 month
Experimental: as §1, §2

Staphylococcus aureos = experiment: Minimum Inhibiting Concentration test; assay type: cell-based; conditions: 35° C., 18 hours
Experimental: as §1, §2

Proteus mirabilis = experiment: Minimum Inhibiting Concentration test; assay type: cell-based; conditions: 35° C., 18 hours
Experimental: as §1, §2

[2] = hair fly-away: electrostatic charge of brushed hair tresses (Faraday pail, electrometer); conditions: one percent aqueous solutions; hair tresses brushed or combed 20 strokes
Experimental: To test the hair fly-away characteristics of the novel bisquaternary ammonium compounds of the present invention, the following test procedure can be utilized.
The hair to be utilized is formed into six inch long, 1.5 gram weight tresses, cleaned with methanol first, then with a 1% solution of sodium lauryl sulfate followed by a rinse with distilled water. The tress is then dried in an oven at 55° C. The tresses except for the controls are then treated with the test compounds and redried at 55° C.
An electrometer (Electrometer Model 610C, Keithley Instrument Co., Cleveland, Ohio) to serve as a coulomb meter for direct measurement of charge is attached to a Faraday pail and switched on.
The test tresses are singly taken out of the drying oven, held at the tied end and brushed or combed twenty strokes alternating between front and back side of the tress as held by the operator. A clean brush or comb is utilized and the velocity with which the brush or comb is traversed through the tress is maintained constant as much as possible. Further, since the electrostatic charges are capable of being quickly dissipated into the atmosphere, the procedure consists of uniformly brushing or combing 20 strokes in a period of 10 seconds and immediately following the last stroke, the lid of the Faraday cage is opened and the tress is dropped into the Faraday pail without contacting any other object and the lid is replaced. The charge in coulombs is read from the electrometer and the tress is then removed from the Faraday pail and the instrument is reset for the next tress sample.
Since electrostatic charge buildup creates fly-away in atmospheres of low humidity, these compounds are useful to prevent said fly-away condition.

rabbit eye = experiment: modified Draize Test, ocular irritation; assay type: in vivo; conditions: 3.50% of compound in shampoo composition; 0.1 ml per eye, albino rabbit; control shampoo rated Severe Irritant
Experimental: The bisquaternary ammonium compounds of the present invention can be tested for ocular irritation by the following modified Draize Test (J. H. Draize et al., Toilet Goods Assn. No. 17, May 1952, No. 1, Proc. Sci. Sect.).
An 0.1 ml. sample of a neutral composition under test is dropped into one eye of an albino rabbit, the other eye serving as a control. Six rabbits are employed for each composition. Observations are made after 1, 24, 48, 72 and 96 hours and 7 days after initial instillation; second and third instillations are made after the 24 and 48 hour readings. Results may vary from substantially no change or only a slight irritation in the appearance of the rabbit's eye after 7 days to severe irritation and/or complete corneal opacity. Ocular lesions are scored for the cornea, iris and conjunctiva with a higher number indicating greater ocular irritation and the scores are added to give a total numerical value for each reading for six rabbits and averaged. The averaged score is an indication of the irritation potential of the composition under test. Based on the averaged score, descriptive irritation evaluation may be given, e.g., none, slight, moderate, severe, as the case may be.
A shampoo composition is prepared consisting of the following ingredients:
This formulation serves as a control with three additional formulations being made with the only difference being that in each of said formulations 3.50% of distilled water is replaced with 3.50% of compound JJ, KK and LL respectively. These formulations are then tested in accordance with the above procedure and the results are shown below in Table I.

## C=CCCCCCCCCC(=O)NCCC[N+](C)(C)CCCC[N+](C)(C)CCCNC(=O)CCCCCCCCC=C [AA, N,N'-undecenylamidopropyl-N,N,N',N'-tetramethyl-1,-4-butylene diammonium bromide]
Pseudomonas aeruginosa
  MIC: 1000 µg/mL
Candida albicans
  MIC: 250 µg/mL
Escherichia coli
  MIC: 125 µg/mL
Staphylococcus pyogenes
  MIC: 500 µg/mL
Staphylococcus epidermis
  MIC: 62.5 µg/mL
Aspergillus niger
  MIC: 250 µg/mL
Proteus vulgaris
  MIC: 250 µg/mL
Epidermophyton flocossum
  MIC: 125 µg/mL
[1]
  MIC: 16 µg/mL
Staphylococcus aureos
  MIC: 125 µg/mL
Proteus mirabilis
  MIC: < 2000 µg/mL

## CCCCCCCCCCCC(=O)NCCC[N+](C)(C)CCOCC[N+](C)(C)CCCNC(=O)CCCCCCCCCCC [CC, N,N'-di(lauramidopropyl)-N,-N,N',N'-tetramethyl-1,5(3-oxapentylene) diammonium bromide]
[2]
  charge reduction compared to the control: greater than 95%
Pseudomonas aeruginosa
  MIC: 250 µg/mL
Candida albicans
  MIC: 63 µg/mL
Escherichia coli
  MIC: 125 µg/mL
Staphylococcus pyogenes
  MIC: 250 µg/mL
Staphylococcus epidermis
  MIC: 125 µg/mL
Aspergillus niger
  MIC: 125 µg/mL
Proteus vulgaris
  MIC: < 2000 µg/mL
Epidermophyton flocossum
  MIC: 62.5 µg/mL
[1]
  MIC: 16 µg/mL
Staphylococcus aureos
  MIC: 250 µg/mL
Proteus mirabilis
  MIC: < 2000 µg/mL

## CCCCCCCCCCCCCCCCCC(=O)NCC[N+](CC)(CC)CCOCC[N+](CC)(CC)CCNC(=O)CCCCCCCCCCCCCCCCC [GG, N,N'-di(stearamidoethyl)-N,N,N',N'-tetraethyl-1,5(3-oxapentylene)diammonium dibromide]
Pseudomonas aeruginosa
  MIC: < 2000 µg/mL
Candida albicans
  MIC: 31 µg/mL
Escherichia coli
  MIC: 1000 µg/mL
Staphylococcus pyogenes
  MIC: < 2000 µg/mL
Staphylococcus epidermis
  MIC: 62.5 µg/mL
Aspergillus niger
  MIC: 250 µg/mL
Proteus vulgaris
  MIC: < 2000 µg/mL
Epidermophyton flocossum
  MIC: 250 µg/mL
[1]
  MIC: 16 µg/mL
Staphylococcus aureos
  MIC: 625 µg/mL
Proteus mirabilis
  MIC: < 2000 µg/mL

## CCCCCCCCCCCCCCCCCCCCCC(=O)NCCC[N+](C)(C)CCOCC[N+](C)(C)CCCNC(=O)CCCCCCCCCCCCCCCCCCCCC [KK, N,N'-di(docosamidopropyl)-N,N,N',N'-tetramethyl-1,5(3-oxapentylene)diammonium dibromide]
Rabbit eye
  ocular irritation rating: Slight-Moderate Irritant

## CCCCCCCCCCCCCCCCCCCCCC(=O)NCCC[N+](C)(C)CCOCCOCCOCCOCCOCCOCCOCCOCCOCCOCCOCCOCC[N+](C)(C)CCCNC(=O)CCCCCCCCCCCCCCCCCCCCC.[Br-].[Br-] [LL, N,N'-di(docosamidopropyl)-N,N,N',N'-tetramethyl-1,38(3,6,9,12,15,18,21,24,-27,30,33,36-dodeca-oxaoctatricontylene)diammonium dibromide]
[2]
  charge reduction compared to the control: greater than 95%
Rabbit eye
  ocular irritation rating: Slight-Moderate Irritant

## N,N'-di(octadidecenamidopropyl)-N,N,N',N'-tetramethyl-1,20 (2,5,8,11,14,17,20-heptamethyl-3,6-9,12,15,18-hexaoxaeicosylene) diammonium dibromide [II]
Pseudomonas aeruginosa
  minimum inhibiting concentration: 2000 µg/mL
Candida albicans
  minimum inhibiting concentration: 250 µg/mL
Escherichia coli
  minimum inhibiting concentration: 500 µg/mL
Staphylococcus pyogenes
  minimum inhibiting concentration: < 2000 µg/mL
Staphylococcus epidermis
  minimum inhibiting concentration: 1000 µg/mL
Aspergillus niger
  minimum inhibiting concentration: 500 µg/mL
Proteus vulgaris
  minimum inhibiting concentration: < 2000 µg/mL
Epidermophyton flocossum
  minimum inhibiting concentration: 500 µg/mL
[1]
  minimum inhibiting concentration: 31 µg/mL
Staphylococcus aureos
  minimum inhibiting concentration: 2000 µg/mL
Proteus mirabilis
  minimum inhibiting concentration: < 2000 µg/mL

## N,N'-di(octatridecenamidopropyl)-N,N,N',N'-tetramethyl-1,5(3-oxapentylene)-diammonium dibromide [JJ]
[2]
  charge reduction compared to the control: greater than 95%
Rabbit eye
  ocular irritation rating: Slight Irritant
